Measured values as given in patent publication US20060154952A1, “Pharmaceutical compositions comprising a combination of rapamycin or its derivative and pimecrolimus for the treatment of inflammation-and ummunologically-mediated diseases” (priority 2003, published 2006).

How the values were obtained:
Assay type in all cases: in vivo
[1] = test system: SCID-IBD mice; assay: SCID-IBD mouse model: loss of body weight; conditions: for effect on the loss of body weight: either compound alone at the dosages used (ASM 60, 30, 10 mg/kg/d; Compound A 0.1, 0.05 mg/kg/d), daily oral gavage
Source text: (§1) Female BALB/cJ and C.B.17 scid/scid mice (Fox Chase SCID®, Bomholtgaard, Denmark) are maintained in ventilated cage racks (Micro-vent type 84-II, Allentown Caging Equipment Co., Allentown, N.J., USA) under specific pathogen free conditions. The experimental procedures performed on the mice are authorized under the license number MA 1048/00 (Magistratabteilung No. 58, Amt der Wiener Landesregierung).
Briefly, CD4^+CD45RB^HI T lymphocytes are isolated from BALB/c mouse spleens by two-colour FACS-sorting through a live/dead gate and injected (2×10^5 cells/mouse, i.p.) into 6-9 week old female SCID mice. Negative control mice receive PBS i.p. and one such mouse is in each cage as a sentinel to monitor possible infections in this immunodeficient colony (PBS-mice).
SCID mice are first reconstituted with the CD4^+CD45RB^HI T cells and then treated with test compounds or vehicle as controls. As test compounds Compound A (RAD) and pimecrolimus (ASM) are used. 3 separate studies using different dosaging are carried out. In each study both compounds are administered alone and combined. […]
The body weight of each mouse is monitored throughout and at the end of the study mice are weighed.
All data presented as mean values are qualified by an s.e.m. value. The body weight data are analysed either by repeated measures analysis or by first finding the mean AUC and then applying an ANOVA multiple comparison test with Tukey post hoc correction. […] All other data are first analysed for normal distribution and then the ANOVA test for multiple comparison is applied. […]
The first visible symptom resulting from the transfer of disease causing CD4^+CD45RB^HI T cells to SCID mice is a severe loss of body weight, usually significant 21 days after transfer. […] In the 3 individual studies described herein, the mean % difference in body weight between the non-transferred and the vehicle-treated mice is calculated to be 16.3±1.8%.

[2] = test system: SCID-IBD mice; assay: SCID-IBD mouse model: colon inflammation, histological severity score; conditions: for effect on colon inflammation (severity scores): low dose study: ASM 10 mg/kg/d, Compound A 0.05 mg/kg/d, alone or combined
Description: (§2) SCID mice are first reconstituted with the CD4^+CD45RB^HI T cells and then treated with test compounds or vehicle as controls. As test compounds Compound A (RAD) and pimecrolimus (ASM) are used. 3 separate studies using different dosaging are carried out. In each study both compounds are administered alone and combined. All 3 studies follow the same basic protocol of 4 groups of mice with one group receiving, by daily oral gavage, both vehicles (placebo), one group Compound A alone, one group ASM alone, and one group a combination of Compound A and pimecrolimus, from day 1 to day 29 after cell transfer.
A photographic picture is taken of the opened abdominal cavity and then a 1 cm long piece of the colon, just above the rectum, is fixed in formalin for histology.
(§3) Specimens are embedded in paraffin, sections (3 μm thick) are cut and stained with H & E. Four colour FACS analysis is performed on cell suspensions prepared from the blood, spleen and mesenteric lymph nodes (MLNS) of each mouse.
All data presented as mean values are qualified by an s.e.m. value. The body weight data are analysed either by repeated measures analysis or by first finding the mean AUC and then applying an ANOVA multiple comparison test with Tukey post hoc correction. Histology scores are represented as the mean severity score and compared with a Wilcoxon-Mann-Whitney test with exact p-values (StatXact-5 software) and Bonferroni post hoc correction factor. All other data are first analysed for normal distribution and then the ANOVA test for multiple comparison is applied. Statistical significance is taken as p<0.05.
The inflammation in the colon of SCID-IBD mice shares many features observed in lesional tissue of a Crohn's diseased colon. In order to examine the intestinal mucosal damage in SCID-IBD mice a histological examination of the colon sections was performed according to defined morphological parameters. The severe colitis associated with this model of IBD is characterized with a massive cellular infiltrate which in places involves nearly all of the submucosa. The infiltrate is mixed and comprised of lymphocytes, macrophages, neutrophils and some eosinophils. Also evident is the loss of crypt architecture, extensive elongation and epithelial hyperplasia. A severely inflamed colon section will also have crypt abscesses. Numeric scores were given as per the following scheme: a score of 0 to 3 is given for the leucocyte infiltrate where 1 is mild, 2 is moderate and 3 is a severe infiltrate including the submucosal layer. A score of 0 to 2 is given for Goblet cell depletion where 2 is given for a complete lack of the alcian blue staining, 0 is given for a normal amount of staining and 1 is intermediate. […] The maximum possible score is 8 and (PBS)-mice are scored 0. […]

[3] = test system: SCID-IBD mice; assay: SCID-IBD mouse model: serum haptoglobin levels; conditions: for reduction of serum haptoglobin levels: ASM at 60 and 30 mg/kg/d, Compound A at 0.1 or 0.05 mg/kg/d, alone; for % reduction of serum haptoglobin: low dose study: ASM 10 mg/kg/d, Compound A 0.05 mg/kg/d, alone or combined
Description: as §2
The mice are anaesthetized at the end of the study and blood withdrawn via cardiac puncture for separation into serum which is frozen and stored at −80°.
(§4) The mean of these values for a group of mice can thus be calculated. To process some of the data further, the determined values are adjusted by subtracting the background value found in non-transferred mice and calculating the % reduction, or indeed increase, in mean cell number, relative to the placebo treated group.
(§5) The increasing T cell population with time also results in an increase in size of lymphoid organs which are otherwise comparatively small in the non-transferred SCID mouse. By day 28 post T cell transfer the inflammation is relatively consistent within a group of mice and this has been adopted as the shortest time where accurate effects of treatment with test compounds can be measured. The effects of a range of doses of Compound A and ASM as single preventative compounds are, in brief, comparative effective dose ranges are found to be from 30 to 100 mg/kg/d administration of ASM and 0.1 to 1 mg/kg/d of Compound A. In the present tests sub-maximal doses of each compounds are used and the effect of the single and combined treatment in the same study is determined.

[4] = test system: SCID-IBD mice; assay: SCID-IBD mouse model: overall disease inhibition / effective dose; conditions: single treatment groups: ASM 60, 30, 10 mg/kg/d; Compound A 0.1, 0.05 mg/kg/d
Source text: as §1
Briefly, CD4^+CD45RB^HI T lymphocytes are isolated from BALB/c mouse spleens by two-colour FACS-sorting through a live/dead gate and injected (2×10^5 cells/mouse, i.p.) into 6-9 week old female SCID mice. […]
as §5

[5] = test system: SCID-IBD mice; assay: SCID-IBD mouse model: lymphocyte numbers (CD3+CD4+) by FACS in blood, spleen and MLN; conditions: for lymphocyte numbers in single treatment groups: study 2: ASM 30 mg/kg/d or Compound A 0.1 mg/kg/d administered alone
Description: as §2
Blood is also taken into 10 mM EDTA for preparation for FACS analysis.
The spleen and MLN are taken from each mouse, weighed and processed for FACS analysis of single cell suspensions.
as §3
Antibodies are obtained from Pharmingen. Cells which are double positive for CD3 and CD4 are counted as lymphocytes. Cells positive for Ly-6G (myeloid differentiation antigen) and negative for CD3 or CD4 are neutrophils (also their cellular characteristics (forward and side scatter) distinguishes them from the other cells).
The number of cells per sample is calculated from the total cell number in each cell suspension and the % of positively identified (samples analysed on a FACS Calibur® using CellQuest Pro® software) cells per sample.
as §4

SMILES | inhibition of weight loss ([1]; ASM alone 60 mg/kg/d, daily oral gavage day 1 to 29) | effect on the loss of body weight [1] | effect on colon inflammation (histology severity score) ([2]; ASM981 60 mg/kg/d alone) | effect on colon inflammation (severity scores) [2] | reduction of serum haptoglobin levels [3] | % reduction of serum haptoglobin [3] [%] | disease inhibition, single treatment [4] | reduction in lymphocyte numbers in MLN ([5]; study 1: ASM 60 mg/kg/d, alone or combined with Compound A 0.1 mg/kg/d) [%] | lymphocyte numbers in single treatment groups [5] | activity on colon inflammation ([2]; Compound A alone at doses below 0.5 mg/kg/d) | effects on lymphocyte numbers ([5]; Compound A 0.1 mg/kg/d alone)
CC[C@@H]1/C=C(\C)C[C@H](C)C[C@H](OC)[C@H]2O[C@@](O)(C(=O)C(=O)N3CCCC[C@H]3C(=O)O[C@H](/C(C)=C/[C@@H]3CC[C@H](Cl)[C@H](OC)C3)[C@H](C)[C@@H](O)CC1=O)[C@H](C)C[C@@H]2OC [ASM, {[1E-(1R,3R,4S)]1R,9S,12S,13R,14S,17R,18E,21S,23S,24R,25S,27R}-12-[2-(4-chloro-3-methoxycyclohexyl)-1-methylvinyl]-17-ethyl-1,14-dihydroxy-23,25-dimethoxy-13,19,21,27-tetramethyl-1,28,dioxa-4-azatricyclo [22.3.1.0(4,9)]octacos-18-ene-2,3,10,16-tetraone] | significant, but low inhibition of weight loss | only minor effects | significant effect | very little effect | potently reduces | 32.7 | significant effects | 73.5 | not reduced | – | –
CO[C@H]1C[C@@H]2CC[C@@H](C)[C@@](O)(O2)C(=O)C(=O)N2CCCC[C@H]2C(=O)O[C@H]([C@H](C)C[C@@H]2CC[C@@H](OCCO)[C@H](OC)C2)CC(=O)[C@H](C)/C=C(\C)[C@@H](O)[C@@H](OC)C(=O)[C@H](C)C[C@H](C)/C=C/C=C/C=C/1C [Compound A, 40-O-(2-hydroxyethyl)-rapamycin] | – | only minor effects | – | very little effect | very weakly active | 27.4 | – | – | not reduced | not significantly active | only weal, if any effects
